Laboratory results: ChEMBL document CHEMBL2417368, “Structure-based discovery of novel amide-containing nicotinamide phosphoribosyltransferase (nampt) inhibitors” (J Med Chem, 2013)
Calls of active or inactive are those of the source. The rule behind the calls is not given here.

Experiments:
[1] = in vitro; conditions: dog, MDCK
[2] = target: Nicotinamide phosphoribosyltransferase (Homo sapiens, UniProt P43490)
[3] = Fraction unbound in human plasma at 5 uM after 4 hrs by LC-MS/MS analysis; format: ADME, cell-free
[4] = Fraction unbound in mouse plasma at 5 uM after 4 hrs by LC-MS/MS analysis; format: ADME, cell-free
[5] = (§1) Metabolic stability in mouse liver microsomes assessed as compound remaining at 1 uM after 30 mins LC-MS analysis; format: ADME, Microsome; conditions: liver microsomes, read-out: Stability
[6] = (§2) Metabolic stability in human liver microsomes assessed as compound remaining at 1 uM after 30 mins LC-MS analysis; format: ADME, Microsome; conditions: liver microsomes, read-out: Stability
[7] = system: A2780; test: cells; conditions: Homo sapiens, A2780, 72 h
[8] = Intrinsic clearance in CD-1 mouse hepatocytes at 1 uM after 10 mins by LC-MS/MS analysis; format: ADME, cell-based, Hepatocyte; conditions: read-out: CLH
[9] = Intrinsic clearance in human hepatocytes at 1 uM after 10 mins by LC-MS/MS analysis; format: ADME, cell-based, Hepatocyte; conditions: read-out: CLH
[10] = system: Liver; test: as §1; format: ADME, Microsome; conditions: microsomes, 0.5 h, 1 µM, BLD = below limit of detection
[11] = system: Liver; test: as §2; format: ADME, Microsome; conditions: microsomes, 0.5 h, 1 µM, BLD = below limit of detection
[12] = system: Mus musculus; test: Toxicity in human U251 cells xenografted in athymic nu/nu mouse assessed as change in body weight at 25 mg/kg, po QD for 7 days; format: organism-based, U-251; design: dose 25 mg/kg, route oral; conditions: in vivo, 168 h
[13] = Clearance in NCR nude mouse plasma at 5 mg/kg, iv; format: ADME, organism-based; design: dose 5 mg/kg, route intravenous
[14] = system: U-251; test: Antiproliferative activity against human U251 cells assessed as cell viability after 72 hrs by SRB assay; format: functional, cell-based; conditions: U-251, 72 h
[15] = Volume of distribution at steady state in NCR nude mouse at 5 mg/kg, iv; format: ADME, organism-based; design: dose 5 mg/kg, route intravenous; conditions: in vivo, read-out: Vdss
[16] = system: U-251; test: Antitumor activity against human U251 cells xenografted in athymic nu/nu mouse assessed as reduction in tumor size at 25 mg/kg, po QD for 7 days measured on day 13; format: functional, organism-based; design: dose 25 mg/kg
[17] = AUC (infinity) in NCR nude mouse at 10 mg/kg, po; format: ADME, organism-based; design: time infinity, dose 10 mg/kg, route oral; conditions: plasma
[18] = Tmax in NCR nude mouse at 10 mg/kg, po; format: ADME, organism-based; design: dose 10 mg/kg, route oral; conditions: in vivo
[19] = system: MIA PaCa-2; test: Antiproliferative activity against human MIAPaCa2 cells assessed as cell viability after 72 hrs; format: functional, cell-based; conditions: MIA PaCa-2, 72 h
[20] = Cmax in NCR nude mouse at 10 mg/kg, po; format: ADME, organism-based; design: dose 10 mg/kg, route oral; conditions: in vivo
[21] = Oral bioavailability in NCR nude mouse at 10 mg/kg; format: ADME, organism-based; conditions: in vivo
[22] = system: PC-3; test: Antiproliferative activity against human PC3 cells assessed as cell viability after 72 hrs; format: functional, cell-based; conditions: PC-3, 72 h
[23] = system: HT-1080; test: Antiproliferative activity against human HT1080 cells assessed as cell viability after 72 hrs; format: functional, cell-based; conditions: HT-1080, 72 h
[24] = system: HCT-116; test: Antiproliferative activity against human HCT116 cells assessed as cell viability after 72 hrs; format: functional, cell-based; conditions: HCT-116, 72 h

Chain of Nicotinamide phosphoribosyltransferase (P43490 whole entry): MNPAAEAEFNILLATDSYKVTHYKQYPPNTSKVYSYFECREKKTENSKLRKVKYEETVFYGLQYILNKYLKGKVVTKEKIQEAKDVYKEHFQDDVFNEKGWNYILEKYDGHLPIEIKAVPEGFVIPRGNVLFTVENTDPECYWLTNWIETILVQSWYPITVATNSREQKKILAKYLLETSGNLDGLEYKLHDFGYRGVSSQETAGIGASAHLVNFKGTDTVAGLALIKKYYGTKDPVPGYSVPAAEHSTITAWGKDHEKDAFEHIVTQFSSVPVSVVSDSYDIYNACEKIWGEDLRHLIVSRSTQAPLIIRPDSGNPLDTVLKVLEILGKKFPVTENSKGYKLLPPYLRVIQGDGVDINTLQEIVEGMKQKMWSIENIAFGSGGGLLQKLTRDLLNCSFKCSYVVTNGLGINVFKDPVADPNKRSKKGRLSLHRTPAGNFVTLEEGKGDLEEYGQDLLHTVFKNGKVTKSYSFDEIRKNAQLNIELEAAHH

Compound | Papp A→B at 10 µM [1] | IC50 [2] | fraction unbound at 4 h, 5 µM [3] | fraction unbound at 4 h, 5 µM [4] | remaining at 0.5 h, 1 µM [5] | remaining at 0.5 h, 1 µM [6] | IC50 [7] | CLint scaled at 1 µM [8] | CLint scaled at 1 µM [9] | Stability [10] | also measured
O=C(NCc1ccc(S(=O)(=O)c2ccc(N3CCOCC3)nc2)cc1)c1ccc2nccn2c1 | 3 ×10⁻⁶ cm/s | 6 nM | 0.012 | 0.025 | 75% | 65% | 1 nM | 43 mL/min/kg | 10 mL/min/kg |  | 
O=C(NCc1ccc(S(=O)(=O)c2cccc(C(F)(F)F)c2)cc1)c1cc2ccncc2o1 | 13 ×10⁻⁶ cm/s | 5 nM | 0.01 | 0.011 | 64% | 48% | 3 nM | 25 mL/min/kg | 10 mL/min/kg |  | 
O=C(NCc1ccc(S(=O)(=O)N2CCCCC2)cc1)c1cc2cccnc2s1 |  | 8 nM |  |  |  |  | > 10000 nM |  |  | BLD | Stability [11]: BLD
O=C(NCc1ccc(S(=O)(=O)N2CCCCC2)cc1)c1cc2ccncc2[nH]1 |  | 1000 nM |  |  |  | 50% | 1700 nM |  |  | BLD | 
O=C(NCc1ccc(S(=O)(=O)c2cccc(C(F)(F)F)c2)cc1)c1cc2cnccc2[nH]1 | 5 ×10⁻⁶ cm/s | 8 nM | 0.006 | 0.007 | 49% | 81% | 3 nM | 60 mL/min/kg | 10 mL/min/kg |  | 
Cn1c(C(=O)NCc2ccc(S(=O)(=O)c3ccccc3)cc2)cc2ccncc21 |  | 410 nM |  |  |  | 71% | > 10000 nM |  |  | BLD | 
O=C(NCc1ccc(S(=O)(=O)N2CCCCC2)cc1)c1ccc2ncsc2c1 |  | 37 nM |  |  |  | 24% | > 10000 nM |  |  | BLD | 
O=C(NCc1ccc(S(=O)(=O)N2CCCCC2)cc1)c1cc2cnccc2s1 |  | 150 nM |  |  |  | 15% | 1600 nM |  |  | BLD | 
O=C(NCc1ccc(S(=O)(=O)c2ccc(N3CCOCC3)nc2)cc1)c1cnc2nccn2c1 | 0.3 ×10⁻⁶ cm/s | 1 nM | 0.028 | 0.12 | 86% | 86% | 2 nM | 69 mL/min/kg | 6 mL/min/kg |  | 
O=C(NCc1ccc(S(=O)(=O)c2ccc(N3CCOCC3)nc2)cc1)c1cc2ccncc2o1 | 15 ×10⁻⁶ cm/s | 3 nM | 0.005 | 0.017 | 42% | 51% | 1 nM | 48 mL/min/kg | 14 mL/min/kg |  | 
O=C(NCc1ccc(S(=O)(=O)c2cc(F)cc(F)c2)cc1)c1ccc2nccn2c1 | 12 ×10⁻⁶ cm/s |  | 0.06 | 0.067 | 39% | 53% | 2 nM | 42 mL/min/kg | 10 mL/min/kg |  | Activity [12]: Non-toxic; clearance [13]: 52.4 mL/min/kg; IC50 [14]: 1.8 nM; Vd [15]: 6.7 L/kg; Activity [16]: Active; AUC(0-inf) [17]: 3.06 µM·h; Tmax [18]: 15 min; IC50 [19]: 7.4 nM; Cmax [20]: 1210 nM; bioavailability [21]: 41.1%; IC50 [22]: 2.7 nM; IC50 [23]: 2.1 nM; IC50 [24]: 2 nM
